Laboratory results published in PubChem BioAssay (NCI).
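Assay format: 96-well plates, 48-hour exposure. Abbreviation: GI50, concentration required for 50% inhibition of growth. TGI: concentration producing complete growth inhibition.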

Tests used:
Test in all cases: NCI anticancer screen, dose series, 48 h
[1] = tested on: KM12 colon
[2] = tested on: SR leukemia
[3] = tested on: SK-MEL-28 melanoma
[4] = tested on: UO-31 renal
[5] = tested on: SNB-75 CNS
[6] = tested on: SK-MEL-2 melanoma
[7] = tested on: RPMI-8226 leukemia
[8] = tested on: OVCAR-3 ovarian
[9] = tested on: DU-145 prostate
[10] = tested on: SW-620 colon
[11] = tested on: NCI-H23 lung
[12] = tested on: HCC-2998 colon
[13] = tested on: NCI-H226 lung
[14] = tested on: HOP-92 NSCLC
[15] = tested on: CCRF-CEM leukemia
[16] = tested on: IGROV1 ovarian
[17] = tested on: A549 NSCLC
[18] = tested on: MALME-3M melanoma
[19] = tested on: SF-539 CNS
[20] = tested on: SNB-19 CNS
[21] = tested on: MDA-MB-231 breast
[22] = tested on: HT29 colon
[23] = tested on: 786-0 renal
[24] = tested on: NCI/ADR-RES ovarian
[25] = tested on: RXF 393 renal
[26] = tested on: MCF7 breast
[27] = tested on: OVCAR-4 ovarian
[28] = tested on: NCI-H460 lung
[29] = tested on: HCT-116 colon
[30] = tested on: MOLT-4 leukemia
[31] = tested on: SK-OV-3 ovarian
[32] = tested on: ACHN renal
[33] = tested on: UACC-257 melanoma
[34] = tested on: PC-3 prostate
[35] = tested on: SK-MEL-5 melanoma
[36] = tested on: A498 renal
[37] = tested on: OVCAR-5 ovarian
[38] = tested on: UACC-62 melanoma
[39] = tested on: U251 CNS
[40] = tested on: M14 melanoma
[41] = tested on: SN12C renal
[42] = tested on: HOP-62 NSCLC
[43] = tested on: SF-268 CNS
[44] = tested on: NCI-H522 lung
[45] = tested on: HS 578T breast
[46] = tested on: HCT-15 colon
[47] = tested on: BT-549 breast
[48] = tested on: MDA-MB-435
[49] = tested on: K-562 leukemia
[50] = tested on: LOX IMVI melanoma
[51] = tested on: EKVX NSCLC
[52] = tested on: COLO 205 colon
[53] = tested on: TK-10 renal
[54] = tested on: CAKI-1 renal
[55] = tested on: OVCAR-8 ovarian
[56] = tested on: HL-60(TB) leukemia

O=C(NC(=S)Nc1ccc(-c2nc3ccccc3[nH]2)cc1)c1ccc2ccccc2c1
GI50 [1]: 6.49 µM
TGI [1]: > 100 µM
GI50 [2]: 0.645 µM
TGI [2]: 11.6 µM
GI50 [3]: 3.86 µM
TGI [3]: 23.4 µM
GI50 [4]: 1.92 µM
TGI [4]: 3.65 µM
GI50 [5]: 1.46 µM
TGI [5]: 3.38 µM
GI50 [6]: 18.3 µM
TGI [6]: 48.8 µM
GI50 [7]: 2.62 µM
TGI [7]: 9.29 µM
GI50 [8]: 3.22 µM
TGI [8]: 10.1 µM
GI50 [9]: 3.9 µM
TGI [9]: > 100 µM
GI50 [10]: 4.2 µM
TGI [10]: > 100 µM
GI50 [11]: 17.8 µM
TGI [11]: > 100 µM
GI50 [12]: 7.15 µM
TGI [12]: > 100 µM
GI50 [13]: 4.36 µM
TGI [13]: 25.4 µM
GI50 [14]: 2.17 µM
TGI [14]: 7.02 µM
GI50 [15]: 6 µM
TGI [15]: > 100 µM
GI50 [16]: 7.66 µM
TGI [16]: > 100 µM
GI50 [17]: 3.79 µM
TGI [17]: > 100 µM
GI50 [18]: 2.14 µM
TGI [18]: 5.54 µM
GI50 [19]: 2.07 µM
TGI [19]: 4.53 µM
GI50 [20]: 68.1 µM
TGI [20]: > 100 µM
GI50 [21]: 2.46 µM
TGI [21]: 7.15 µM
GI50 [22]: 4.61 µM
TGI [22]: > 100 µM
GI50 [23]: 1.88 µM
TGI [23]: 3.52 µM
GI50 [24]: 4.52 µM
TGI [24]: > 100 µM
GI50 [25]: 1.92 µM
TGI [25]: 3.77 µM
GI50 [26]: 4.56 µM
TGI [26]: > 100 µM
GI50 [27]: 2.78 µM
TGI [27]: 9.22 µM
GI50 [28]: 4.29 µM
TGI [28]: > 100 µM
GI50 [29]: 2.56 µM
TGI [29]: 7.33 µM
GI50 [30]: 8.04 µM
TGI [30]: > 100 µM
GI50 [31]: 12.8 µM
TGI [31]: 37 µM
GI50 [32]: 1.92 µM
TGI [32]: 4.02 µM
GI50 [33]: 5.59 µM
TGI [33]: > 100 µM
GI50 [34]: 3.26 µM
TGI [34]: 35.5 µM
GI50 [35]: 3.63 µM
TGI [35]: > 100 µM
GI50 [36]: 10.7 µM
TGI [36]: 57.8 µM
GI50 [37]: 3.75 µM
TGI [37]: 16.6 µM
GI50 [38]: 4.06 µM
TGI [38]: > 100 µM
GI50 [39]: 3.62 µM
TGI [39]: 18.1 µM
GI50 [40]: 4.79 µM
TGI [40]: > 100 µM
GI50 [41]: 3.18 µM
TGI [41]: 9.81 µM
GI50 [42]: 2.41 µM
TGI [42]: 5.58 µM
GI50 [43]: > 100 µM
TGI [43]: > 100 µM
GI50 [44]: 18.9 µM
TGI [44]: > 100 µM
GI50 [45]: 3.09 µM
TGI [45]: 9.94 µM
GI50 [46]: 3.15 µM
TGI [46]: 50.1 µM
GI50 [47]: 2.2 µM
TGI [47]: 6.73 µM
GI50 [48]: 4.27 µM
TGI [48]: > 100 µM
GI50 [49]: 13.3 µM
TGI [49]: > 100 µM
GI50 [50]: 2.14 µM
TGI [50]: 4.74 µM
GI50 [51]: 22.9 µM
TGI [51]: > 100 µM
GI50 [52]: 4.98 µM
TGI [52]: 46.5 µM
GI50 [53]: 3.33 µM
TGI [53]: 8.44 µM
GI50 [54]: 1.96 µM
TGI [54]: 4.58 µM
GI50 [55]: 4.11 µM
TGI [55]: > 100 µM
GI50 [56]: 6.31 µM
TGI [56]: 26 µM
